Legend:
CysLT1R = settings: cited from earlier work; for pAct: CysLT1R, ChEMBL value, ref 29 (ChEMBL)
CysLT2R = settings: CysLT2R; ChEMBL value; ref 29 (ChEMBL); cited from earlier work
wild-type CysLT2R = molecular target: T1, wild-type CysLT2R (Homo sapiens, UniProt Q9NS75); experiment: IP1 production assay, antagonist mode, co-stimulation with EC80 LTD4; format: cell-based
T1 construct: expressed in transfected cells; host or cells: HEK293 (ATCC CRL-1573), transient transfection with Lipofectamine 3000
T1 sequence (Q9NS75 1-346): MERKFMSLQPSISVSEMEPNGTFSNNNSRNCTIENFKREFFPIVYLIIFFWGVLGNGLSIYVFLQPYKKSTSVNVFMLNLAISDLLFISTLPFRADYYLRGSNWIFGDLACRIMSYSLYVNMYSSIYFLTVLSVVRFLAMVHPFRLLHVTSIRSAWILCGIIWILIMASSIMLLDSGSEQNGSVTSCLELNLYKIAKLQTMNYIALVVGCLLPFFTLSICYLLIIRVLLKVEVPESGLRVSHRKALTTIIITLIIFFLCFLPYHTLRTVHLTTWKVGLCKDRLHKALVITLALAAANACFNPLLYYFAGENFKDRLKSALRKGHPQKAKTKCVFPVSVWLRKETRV

wild-type CysLT1R = molecular target: T2, wild-type CysLT1R (Homo sapiens, UniProt Q9Y271); experiment: as above; format: cell-based
T2 construct: expressed in transfected cells; host or cells: HEK293 (ATCC CRL-1573), transient transfection with Lipofectamine 3000
T2 sequence (Q9Y271 1-337): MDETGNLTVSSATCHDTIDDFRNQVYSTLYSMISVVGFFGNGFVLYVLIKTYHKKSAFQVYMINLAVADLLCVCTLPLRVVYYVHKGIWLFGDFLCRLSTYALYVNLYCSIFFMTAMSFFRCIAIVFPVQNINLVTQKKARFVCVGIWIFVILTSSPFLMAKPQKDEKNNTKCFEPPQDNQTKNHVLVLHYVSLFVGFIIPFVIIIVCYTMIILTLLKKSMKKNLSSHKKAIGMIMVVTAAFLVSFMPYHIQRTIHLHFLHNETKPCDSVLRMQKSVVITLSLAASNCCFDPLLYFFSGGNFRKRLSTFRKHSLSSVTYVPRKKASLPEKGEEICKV

Structure (SMILES) | pAct (CysLT1R) | remaining activity at 30 µM (wild-type CysLT2R) | remaining activity at 30 µM (wild-type CysLT1R) | other results
CC(C)(O)c1ccc(CC[C@@H](SCC2(CC(=O)O)CC2)c2cccc(C=Cc3ccc4sc(Cl)c(Cl)c4n3)c2)cc1 [CHEMBL313187, CC(C)(c1ccc(CC[C@H](c2cccc(C=Cc3ccc4c(c(c(s4)[Cl])[Cl])n3)c2)SCC2(CC2)CC(O)=O)cc1)O] | 9.4 |  |  | 
CC(C)(O)c1ccccc1CC[C@@H](SCC1(CC(=O)O)CC1)c1cccc(C=Cc2ccc3c(n2)CCS3)c1 [CHEMBL140058, CC(C)(c1ccccc1CC[C@H](c1cccc(C=Cc2ccc3c(CCS3)n2)c1)SCC1(CC1)CC(O)=O)O] | 8.5 |  |  | 
COc1cccc2c(C=CC(=O)Nc3cccc(C=Cc4ccc5ccc(Cl)cc5n4)c3)c(C(=O)O)[nH]c12 [CHEMBL3810210, COc1cccc2c(C=CC(Nc3cccc(C=Cc4ccc5ccc(cc5n4)[Cl])c3)=O)c(C(O)=O)[nH]c12] | 8.2 |  |  | 
CN(C)C(=O)CCS[C@H](SCCC(=O)O)c1cccc(C=Cc2ccc3ccc(Cl)cc3n2)c1.[Na] [CHEMBL89340, CN(C)C(CCS[C@@H](c1cccc(C=Cc2ccc3ccc(cc3n2)[Cl])c1)SCCC(O)=O)=O.[Na]] | 8.5 |  |  | 
O=C(Nc1cccc2c(=O)cc(-c3nn[nH]n3)oc12)c1ccc(OCCCCc2ccccc2)cc1 [CHEMBL21333, C(CCOc1ccc(cc1)C(Nc1cccc2C(C=C(c3nn[nH]n3)Oc12)=O)=O)Cc1ccccc1] | 9.1 |  |  | 
COc1ccc(NS(=O)(=O)C(F)(F)F)cc1C[C@H]1[C@@H](CO)c2cc(OCc3ccc4ccc(C)cc4n3)ccc2OC1(C)C [CHEMBL1214531, Cc1ccc2ccc(COc3ccc4c(c3)[C@H](CO)[C@H](Cc3cc(ccc3OC)NS(C(F)(F)F)(=O)=O)C(C)(C)O4)nc2c1] | 8.4 |  |  | 
Cc1c(Cl)cccc1CCCCOc1ccc(C#Cc2cccc3c(CCCC(=O)O)c(C)n(CC(=O)O)c23)cc1 [CHEMBL3597618, Cc1c(CCCCOc2ccc(C#Cc3cccc4c(CCCC(O)=O)c(C)n(CC(O)=O)c34)cc2)cccc1[Cl]] | 9.7 |  |  | 
O=C(O)CCCN1CC(C(=O)O)Oc2c(NC(=O)c3ccc(OCCCCCc4ccccc4)cc3)cccc21 (stereo not drawn) [CHEMBL3342959, C(CCc1ccccc1)CCOc1ccc(cc1)C(Nc1cccc2c1OC(CN2CCCC(O)=O)C(O)=O)=O] |  |  |  | pAct (CysLT2R): 9.2
O=C(O)CCCc1cn(CC(=O)O)c2c(C=Cc3ccc(OCCCCOc4ccccc4)cc3)cccc12 [CHEMBL3597522, C(CC(O)=O)Cc1cn(CC(O)=O)c2c(C=Cc3ccc(cc3)OCCCCOc3ccccc3)cccc12] |  |  |  | pAct (CysLT2R): 8.2
O=C(O)CCCN1CC(c2nn[nH]n2)Oc2c(NC(=O)c3ccc(OCCCCc4ccccc4)cc3)cccc21 (stereo not drawn) [CHEMBL3401689, C(CCOc1ccc(cc1)C(Nc1cccc2c1OC(CN2CCCC(O)=O)c1nn[nH]n1)=O)Cc1ccccc1] |  |  |  | pAct (CysLT2R): 9.3
O=C(O)c1[nH]c2ccccc2c1C(=O)Nc1cccc(/C=C/c2ccc3ccc(Cl)cc3n2)c1 [CHEMBL3809164] |  |  |  | IC50 (CysLT1R; activity of the ligand from ChEMBL, ref ChEMBL, read-out: IC50 (CysLT1)): 35 nM
O=C(O)CCCN1CC(C(=O)O)Oc2c(C=Cc3ccc(OCCCCc4ccccc4)cc3)cccc21 (stereo not drawn) [CHEMBL3401687, C(CCOc1ccc(C=Cc2cccc3c2OC(CN3CCCC(O)=O)C(O)=O)cc1)Cc1ccccc1] |  |  |  | pAct (CysLT2R): 8.2
O=C(O)CCCN1CC(C(=O)O)Oc2c(C=Cc3ccc(OCCCCOc4ccccc4)cc3)cccc21 (stereo not drawn) [CHEMBL3403187, C(CC(O)=O)CN1CC(C(O)=O)Oc2c(C=Cc3ccc(cc3)OCCCCOc3ccccc3)cccc12] |  |  |  | pAct (CysLT2R): 9.5
COc1cc(C(=O)NS(=O)(=O)c2ccccc2C)ccc1Cc1cn(C)c2ccc(NC(=O)OC3CCCC3)cc12 [CHEMBL603, Cc1ccccc1S(NC(c1ccc(Cc2cn(C)c3ccc(cc23)NC(=O)OC2CCCC2)c(c1)OC)=O)(=O)=O] | 11.4 |  |  | 
O=C(Nc1ccc2ccc(OCc3ccc4ccccc4n3)cc2c1)OCc1ccc(C(=O)O)cc1 [CHEMBL132167, C(c1ccc(cc1)C(O)=O)OC(Nc1ccc2ccc(cc2c1)OCc1ccc2ccccc2n1)=O] | 8.0 |  |  | 
NC(=O)c1ccc(CNC(=O)c2ccc(NC(=O)c3ccc(Cl)c(Cl)c3)cc2O)o1 [BRI-12418] |  | 67.9% | 65.4% | 
O=C(O)CCNC(=O)c1nccnc1C(=O)Nc1ccc(Cl)cc1 [BRI-12465] |  | 59.9% | 84.7% | 
O=C(O)CCCN1C[C@@H](C(=O)O)Oc2c(NC(=O)c3ccc(OCCCCc4ccccc4)cc3)cccc21 [CHEMBL3342964, C(CCOc1ccc(cc1)C(Nc1cccc2c1O[C@@H](CN2CCCC(O)=O)C(O)=O)=O)Cc1ccccc1] |  |  |  | pAct (CysLT2R): 9.1

Structure (SMILES) | pAct (CysLT1R) | remaining activity at 30 µM (wild-type CysLT2R) | remaining activity at 30 µM (wild-type CysLT1R) | other results
C[C@@H]1C[C@H](C(=O)Nc2cccc(NC(=O)c3cccs3)c2)O[C@H]1C(=O)O [BRI-12306] |  | 112% | 81.2% | 
O=C(O)c1csc(S(=O)(=O)Nc2cccc(NC(=O)c3ccco3)c2)c1 [BRI-12344] |  | 96.8% | 72.5% | 
CCc1ccc(CN(C)S(=O)(=O)c2[nH]ncc2C(=O)O)cc1 [BRI-12470] |  | 58.6% | 81% | 
CCCC(CCc1nnn[nH]1)Cc1ccc(OCc2ccc3ccccc3n2)cc1 (stereo not drawn) [CHEMBL97356, CCCC(CCc1nnn[nH]1)Cc1ccc(cc1)OCc1ccc2ccccc2n1] | 8.0 |  |  | 
O=C(O)CNS(=O)(=O)c1cccc(NC(=O)c2ccc(C3CCC3)cc2)c1 [BRI-12429] |  | 68% | 72.3% | 
NC(=O)CNC(=O)c1ccc(CNC(=O)c2cc3ccc(F)cc3[nH]c2=O)cc1 [BRI-12453] |  | 49.5% | 88.3% | inhibition at 30 µM (wild-type CysLT2R; HEK293, compound 30 µM, LTD4 at EC80, HEK293, wild-type CysLT2R, read-out: inhibition of LTD4-induced IP1 production, single-concentration screen): ≥ 50%; Emax (wild-type CysLT2R; HEK293, read-out: CysLT2R (LTD4) % Max Inhibition ± SEM): 3 ± 7%
O=C(O)CC1CN(S(=O)(=O)C=Cc2ccc(Cl)cc2)c2ccccc21 (stereo not drawn) [BRI-12449] |  | 67.8% | 67.5% | 
CC(Sc1nc(Nc2ccccc2)c2ccccc2n1)C(=O)N1CCNC1=O (stereo not drawn) [BRI-12358] |  | 73.5% | 58% | 
O=C(O)c1cccc(NC(=O)c2ccc(N3CCNC3=O)cc2)c1 [BRI-12457] |  | 67.4% | 83.8% | 
NC(=O)COc1cccc(C(=O)NC(CC(=O)O)c2ccc(Cl)c(F)c2)c1 (stereo not drawn) [BRI-12330] |  | 93.4% | 72.1% | 
O=C(O)c1cc(Cl)cc2c(=O)cc(-c3cccc(C=Cc4ccc5ccccc5n4)c3)oc12 [CHEMBL416769, C(=Cc1ccc2ccccc2n1)c1cccc(c1)C1=CC(c2cc(cc(C(O)=O)c2O1)[Cl])=O] | 8.0 |  |  | 
CC(=O)c1cc2c(cc1NC(=O)COc1ccc(Cl)cc1C(N)=O)OCO2 [BRI-12343] |  | 88.9% | 73.7% | 
O=C1COc2cc(C(=O)N3CCC(c4cc5ccccc5[nH]4)CC3)c(Cl)cc2N1 [BRI-12416] |  | 80.4% | 70.8% | 
NC(=O)c1ncn(C2CCCN(c3nc(-c4ccccc4)cs3)C2)n1 (stereo not drawn) [BRI-12455] |  | 71.1% | 84.2% | 
O=C(O)CNC(=O)Cc1ccc(NC(=O)c2n[nH]c3ccccc23)cc1 [BRI-12313] |  | 110% | 88.6% | 
O=C(O)C1CN(C(=O)Nc2cc(Br)ccn2)CCO1 (stereo not drawn) [BRI-12436] |  | 67.5% | 93.9% | 
CCCCCC=CCC=CC=CC=C[C@@H](SC[C@H](N)C(=O)NCC(=O)O)[C@@H](O)CCCC(=O)O [CHEMBL288943, CCCCCC=CCC=CC=CC=C[C@H]([C@H](CCCC(O)=O)O)SC[C@@H](C(NCC(O)=O)=O)N] | 9.5 |  |  | 
COc1cc(C(=O)NS(=O)(=O)c2ccccc2C)ccc1Cc1cn(C)c2ccc(NC(=O)NC3CCCC3)cc12 [CHEMBL431348] |  |  |  | Kd (CysLT1R; activity of the ligand from ChEMBL, ref ChEMBL, read-out: Kd (CysLT1)): 0.79 nM
